Laboratory results reported in the NIST ThermoML archive (doi:10.1021/acs.jced.7b00485).
± gives the expanded uncertainty stated by the source.

Settings: Liquid, Closed cell (Static) method

vapor or sublimation pressure (294.23 K) | vapor or sublimation pressure (296.23 K) | vapor or sublimation pressure (308.21 K) | vapor or sublimation pressure (323.19 K) | Structure (SMILES) | vapor or sublimation pressure (273.27 K) | vapor or sublimation pressure (288.25 K)
215 ± 1 kPa | 231 ± 1 kPa | 332 ± 1 kPa | 498 ± 1 kPa | CCCC [butane] | 104 ± 1 kPa | 177 ± 1 kPa
– | – | – | – | FC(F)(F)C(F)(F)F [hexafluoroethane] | 1851 ± 3 kPa | 2708 ± 4 kPa
